# Patent EP4810065A1, “COMBINED USE OF ANTIBODY-DRUG CONJUGATE AND POLY(ADENOSINE D[…]) POLYMERASE INHIBITOR” (Jiangsu Hansoh Pharmaceutical Group Co., Ltd., priority 2023, dated 2025)
# How the values were obtained:
# [1] = tested on: OAW42 cells; test: CTG growth inhibition, drug A/drug B cross-combination, 6 days; format: cell-based, human; settings: Drug B alone, 4.12-1000.00 nM
# Method: (§1) Tumor cells in good growth condition were seeded into 96-well plates. After overnight growth onto the wall, different concentrations of the test substances were administered, with different concentrations of the two test substances arranged in a cross-combination design.
# (§2) The starting concentration of test drug A was 1000 nM, which was subjected to 1:3 serial dilution to generate a total of 6 concentration levels; the starting concentration of test drug B was set at 1000 nM, which was subjected to 1:3 serial dilution to generate a total of 6 concentration levels. After the combined test substances had acted on each cell line for 6 days, the CTG method was used to detect the in vitro proliferation inhibitory effect of the combined use of the test drugs on tumor cells. Table 2-1 Drug A and drug B treatment dosing scheme
# (§3) Based on the signal values measured by the microplate reader, the cell growth inhibition rate was calculated according to the following formula: Growth inhibition rate % (growth inhibition%) = [1-(measured value-minimum value mean-background value)/(maximum value mean-background value-minimum value mean)] ×100% (measured value: reading value of compound wells; minimum value: reading value of ZPE wells (reading value of wells containing cell culture medium without cells); maximum value: reading value of HPE wells (cell reading value of the DMSO treatment group); background value: cell background measured value before addition of the compound).
# [2] = tested on: COV362 cells; test: as above; format: cell-based, human; settings: Drug B alone, 4.12-1000.00 nM
# Method: as §1, §2, §3
# [3] = tested on: CAL-51 cells; test: as above; format: cell-based, human; settings: Drug B alone, 4.12-1000.00 nM
# Method: as §1, §2, §3
# [4] = tested on: EN cells; test: as above; format: cell-based, human; settings: Drug B alone, 4.12-1000.00 nM
# Method: as §1, §2, §3
# [5] = tested on: HEC-1A cells; test: as above; format: cell-based, human; settings: Drug B alone, 4.12-1000.00 nM
# Method: as §1, §2, §3
# [6] = tested on: MX-1 cells; test: as above; format: cell-based, human; settings: Drug B alone, 4.12-1000.00 nM
# Method: as §1, §2, §3
# [7] = tested on: SK-OV-3 cells; test: as above; format: cell-based, human; settings: Drug B alone, 4.12-1000.00 nM
# Method: as §1, §2, §3
# [8] = tested on: RL95-2 endometrial cancer cell mouse xenografts; test: RL95-2 human endometrial cancer subcutaneous xenograft model; format: in vivo, nude mice
# Method: (§4) Drug A was prepared by dilution with normal saline, and drug B was prepared using 0.5% HPMC; Human endometrial cancer cells RL95-2 were cultured in vitro in a cell incubator at 37°C and 5% CO2. Routine digestion treatment and passaging were carried out twice a week using trypsin-EDTA. When the cell confluence was 80%-90% and the number of cells reached the requirement, the cells were collected, counted, and inoculated.
# (§5) RL95-2 cells were resuspended in PBS, the density after resuspension was 100 × 10^6/mL, the resuspended cells were mixed with an equal volume of Matrigel, inoculated subcutaneously into the right dorsal side of each mouse, 0.1 mL was inoculated into each mouse (5 × 10^6 cells/animal), and when the average tumor volume grew to 100-150 mm^3, grouping was carried out (D1), and administration was started on the day of grouping. The mice were administered by gavage (p.o.) once daily; the mice were administered by tail vein injection (i.v.) as a single administration; the administration volume was 10 mL/kg; the vehicle group was given the same volume of "vehicle"; the specific administration doses and administration regimens are shown in Table 5-1. Tumor volume was measured, mouse body weight was weighed, and data were recorded.
# (§6) The experimental indicator was to examine the effect of the drug on tumor growth, and the specific indicator was the tumor growth inhibition rate TGI (%).
# (§7) The tumor diameter was measured twice a week with a vernier caliper, and the calculation formula for tumor volume (V) was:V = 1/2×a×b^2 where a, b respectively indicate length and width.
# (§8) Calculation of TGI (%): When there was no tumor regression, TGI (%) = [1 - (average tumor volume of a certain treatment group at the end of administration - average tumor volume of that treatment group at grouping)/(average tumor volume of the vehicle control group at the end of treatment - average tumor volume of the vehicle control group at grouping)] × 100%. When there was tumor regression, TGI (%) = [1 - (average tumor volume of a certain treatment group at the end of administration - average tumor volume of that treatment group at grouping)/average tumor volume of that treatment group at grouping] × 100%.
# (§9) At the end of the experiment, upon reaching the experimental endpoint, or when the average tumor volume reached 2000 mm^3, the animals were euthanized under CO2 anesthesia, and then dissected for tumor collection and photographing.
# (§10) The experimental data were analyzed and plotted using GraphPad Prism 9.4. Based on the tumor volume data of each group at different time points, Dunnett's multiple comparisons test in Two-way ANOVA was used for statistical analysis to evaluate differences among groups. […] Table 5-1. Dosing regimen of drug A in combination with drug B in the RL95-2 model
# [9] = tested on: MX-1 human breast cancer cell mouse xenografts; test: MX-1 human breast cancer subcutaneous xenograft model; format: in vivo, Balb/c nude mice
# Method: as §4, with “breast” for “endometrial”, “cancer MX-1” for “cancer”, “cells” for “cells RL95-2”, “cultured as a monolayer” for “cultured”, “vitro under culture conditions of DMEM/F12 medium supplemented with 10% fetal bovine serum, 100 U/mL penicillin, and 100 µg/mL streptomycin, and cultured” for “vitro”
# Balb/c nude mice, female, body weight 17-25 g, were purchased from Shanghai Bi Kai Ke Yi Biotechnology Co., Ltd.
# as §5, with “MX-1 cells were” for “RL95-2 cells were”, “resuspension was 100×10^6/mL, the resuspended” for “resuspension was 100 × 10^6/mL, the resuspended”, “each mouse (5×10^6 cells/animal), and” for “each mouse (5 × 10^6 cells/animal), and”, “(D1), and drug administration was” for “(D1), and administration was”, “in Table 3-1. Tumor volume” for “in Table 5-1. Tumor volume”
# as §6, §7, §8, §9
# as §10, with “3-1.” for “5-1.”, “MX-1” for “RL95-2”
# [10] = tested on: human ovarian cancer OV0243; test: OV0243 human ovarian cancer PDX subcutaneous xenograft model; format: in vivo, BALB/c nude mice; settings: for TGI (%): D27, tumor regression formula
# Method: • Drug A was prepared by dilution with normal saline, and drug B was prepared using 0.5% HPMC; • OV0243 (mild cachexia), human ovarian cancer tumor tissue, was provided by Crown Bioscience (Beijing) Inc. • BALB/c nude mice, female, body weight 16-22 g, were purchased from Jiangsu Jicui Yaokang Biotechnology Co., Ltd.
# OV0243 human ovarian cancer tissue was uniformly cut into tumor pieces with a diameter of 2-3 mm and inoculated subcutaneously at the right front scapular region of BALB/c nude mice, and tumor growth was regularly observed. When the average tumor volume reached 100-150 mm^3, random grouping was performed based on the tumor size and mouse body weight in accordance with Table 4-1. The tumor diameter was measured twice a week with a vernier caliper, and the calculation formula for tumor volume (V) was:V = 1/2×a×b^2 where a, b respectively indicate length and width.
# as §6, §8, §9
# The experimental data were analyzed and plotted using GraphPad Prism 9.4. Based on the tumor volume data of each group at different time points, Dunnett's multiple comparisons test in Two-way ANOVA was used for statistical analysis to evaluate differences among groups.
# The invivoSyn method was used to analyze the synergistic effect of the combination treatment. First, based on the exponential growth model, the tumor growth rate of each mouse (eGR, exponential growth rate) and the average tumor growth rate of each group (eGRg) were calculated. Then, the relative survival rate of the treatment group and the control group was calculated by using the conditional probability formula Pr(T|C)=ST/SC, wherein SA, SB, and SAB are respectively defined as the relative survival rates of single-drug group A, single-drug group B, and the combination administration group at time point t. SA = (exp(eGRA*t))/(exp(eGRC*t)) [formula] SB = (exp(eGRB*t))/(exp(eGRC*t)) [formula] SAB = (exp(eGRAB*t))/(exp(eGRC*t)) [formula]
# Based on the highest single-drug effect model (HSA, Highest Single Agent), the expected survival rate E(SAB) of the combination administration group was calculated. For the HSA model, E(SAB) = min(SA, SB). CI (Combination Index) is defined as the ratio of the observed survival rate SAB of the combination administration group to E(SAB), while the synergistic effect score (SS, Synergy Score) is defined as the percentage difference between E(SAB) and SAB. When the CI value is less than 1 or the SS value is greater than 0, the combination is considered to have a synergistic effect. p values and confidence intervals were calculated using the stratified bootstrap method (Stratified bootstrap). Table 4-1. Dosing regimen of drug A in combination with drug B in the OV0243 model
# [11] = D0 (at grouping), Drug B 1 mg/kg p.o. QD*28 times
# [12] = D28, Drug B 1 mg/kg p.o. QD*28 times
smiles,measurement,setting,value
"CCc1cc2ncc(CN3CC=C(c4ccc(C(=O)NC)nc4)CC3)cc2[nH]c1=O [Drug B, 1'-((7-ethyl-6-oxo-5,6-dihydro-1,5-naphthyridin-3-yl)methyl)-N-methyl-1',2',3',6'-tetrahydro-[3,4'-bipyridine]-6-carboxamide]",Growth inhibition rate,[1]; drug B 4.12 nM,6.29%
same,Growth inhibition rate,[1]; drug B 12.35 nM,4.07%
same,Growth inhibition rate,[1]; drug B 37.04 nM,6.30%
same,Growth inhibition rate,[1]; drug B 111.11 nM,7.53%
same,Growth inhibition rate,[1]; drug B 333.33 nM,12.46%
same,Growth inhibition rate,[2]; drug B 4.12 nM,22.59%
same,Growth inhibition rate,[2]; drug B 12.35 nM,22.45%
same,Growth inhibition rate,[2]; drug B 37.04 nM,21.18%
same,Growth inhibition rate,[2]; drug B 111.11 nM,25.95%
same,Growth inhibition rate,[2]; drug B 333.33 nM,23.74%
same,Growth inhibition rate,[3]; drug B 4.12 nM,9.89%
same,Growth inhibition rate,[3]; drug B 12.35 nM,8.42%
same,Growth inhibition rate,[3]; drug B 37.04 nM,12.34%
same,Growth inhibition rate,[3]; drug B 111.11 nM,11.19%
same,Growth inhibition rate,[3]; drug B 333.33 nM,15.02%
same,Growth inhibition rate,[4]; drug B 4.12 nM,31.13%
same,Growth inhibition rate,[4]; drug B 12.35 nM,22.59%
same,Growth inhibition rate,[4]; drug B 37.04 nM,24.15%
same,Growth inhibition rate,[4]; drug B 111.11 nM,27.18%
same,Growth inhibition rate,[4]; drug B 333.33 nM,24.54%
same,Growth inhibition rate,[5]; drug B 4.12 nM,3.73%
same,Growth inhibition rate,[5]; drug B 12.35 nM,4.25%
same,Growth inhibition rate,[5]; drug B 37.04 nM,5.84%
same,Growth inhibition rate,[5]; drug B 111.11 nM,9.01%
same,Growth inhibition rate,[5]; drug B 333.33 nM,7.40%
same,Growth inhibition rate,[6]; drug B 4.12 nM,33.15%
same,Growth inhibition rate,[6]; drug B 12.35 nM,31.24%
same,Growth inhibition rate,[6]; drug B 37.04 nM,33.85%
same,Growth inhibition rate,[6]; drug B 111.11 nM,40.59%
same,Growth inhibition rate,[6]; drug B 333.33 nM,46.92%
same,Growth inhibition rate,[7]; drug B 4.12 nM,3.96%
same,Growth inhibition rate,[7]; drug B 12.35 nM,2.49%
same,Growth inhibition rate,[7]; drug B 37.04 nM,2.34%
same,Growth inhibition rate,[7]; drug B 111.11 nM,6.14%
same,Growth inhibition rate,[7]; drug B 333.33 nM,9.22%
same,Average tumor volume (mm^3) + SEM,[8]; [11],134+7 mm^3
same,Average tumor volume (mm^3) + SEM,[8]; [12],1097+109 mm^3
same,T/C (%),[8]; [12],95.50%
same,TGI (%),[8]; [12],5.08%
same,tolerability,[8]; RL95-2 tumor-bearing mice,could well tolerate
same,tumor growth inhibition,[8]; RL95-2 xenograft mouse model,had no obvious inhibitory effect on tumor growth
same,Average tumor volume (mm^3) ± SEM,"[9]; D0 (at grouping), Drug B 0.3 mg/kg",148±7 mm^3
same,Average tumor volume (mm^3) ± SEM,"[9]; D28, Drug B 0.3 mg/kg",199±20 mm^3
same,TGI (%),"[9]; D28, Drug B 0.3 mg/kg",97.25%
same,Partial regression,"[9]; D28, Drug B 0.3 mg/kg, animals with partial regression/animals in group",2/8
same,"tolerability (body weight, death, abnormal symptoms)",[9]; MX-1 tumor-bearing mice,could well tolerate
same,Average tumor volume (mm^3) ± SEM,"[10]; D0 (at grouping), Drug B 0.1 mg/kg p.o. QD*28 times",137±2 mm^3
same,Average tumor volume (mm^3) ± SEM,[10]; [11],138±2 mm^3
same,TGI (%),[10]; Drug B 0.1 mg/kg p.o. QD*28 times,129.84%
same,TGI (%),[10]; Drug B 1 mg/kg p.o. QD*28 times,191.94%
same,Average tumor volume (mm^3) ± SEM,"[10]; Day 27, Drug B 0.1 mg/kg p.o. QD*28 times",96±14 mm^3
same,Average tumor volume (mm^3) ± SEM,"[10]; Day 27, Drug B 1 mg/kg p.o. QD*28 times",11±6 mm^3
same,Average tumor volume (mm^3) ± SEM,"[10]; Day 55, Drug B 0.1 mg/kg p.o. QD*28 times",3±3 mm^3
same,Average tumor volume (mm^3) ± SEM,"[10]; Day 55, Drug B 1 mg/kg p.o. QD*28 times",0±0 mm^3
same,Average tumor volume (mm^3) ± SEM,"[10]; Day 83 (day 56 after drug withdrawal), Drug B 0.1 mg/kg p.o. QD*28 times",78±27 mm^3
same,Average tumor volume (mm^3) ± SEM,"[10]; Day 83 (day 56 after drug withdrawal), Drug B 1 mg/kg p.o. QD*28 times",50±23 mm^3
same,"tumor growth inhibition, monotherapy","[10]; OV0243 model, conclusion",significantly inhibit the growth of xenograft tumors in nude mice
same,tolerability,[10]; OV0243 tumor-bearing mice,could well tolerate
same,body weight decrease of 1 animal,"[10]; drug B 0.1 mg/kg, by day 51, euthanasia",greater than 20%
same,body weight decrease of 1 animal,"[10]; drug B 0.1 mg/kg, day 23",17.39%
same,animals with partial tumor regression,"[10]; drug B 0.1 mg/kg, day 27",5/6
same,average body weight change rate,"[10]; drug B 0.1 mg/kg, day 27",2.18%
same,animals with complete tumor regression,"[10]; drug B 1 mg/kg, day 27",3/6
same,animals with partial tumor regression,"[10]; drug B 1 mg/kg, day 27",3/6
same,average body weight change rate,"[10]; drug B 1 mg/kg, day 27",3.75%
